Results reported in patent US12398121B2 (Nuvation Bio Inc., priority 2018, dated 2025).
pIC50: −log10 of the molar value. Read-outs that look alike come from different tables or passages of the source.

Experiments:
Human recombinant PARP1 = Human recombinant PARP1 (Homo sapiens, UniProt P09874); test: RBC HotSpot PARP1 radioisotope-based filter binding assay; type: biochemical
Protocol: The following methods are for evaluating the in vitro biology properties of the test articles. • a. RBC HotSpot Poly(ADP-ribose) Polymerases 1 (PARP1) and Poly(ADP-ribose) Polymerases 2 (PARP2) Assays: The assay principle is radioisotope-based filter binding assay where incorporation of radioisotope-labeled NAD^+ into the substrate captured on filter is detected after washout free NAD^+. Data were analyzed using Excel and GraphPad Prism software for IC50 curve fits. Each assay was conducted with PJ34 as a positive control. • i. PARP1 assay: Human recombinant PARP1 at a final concentration of 2.5 nM was combined with histone H4 (20 μM) and test articles at various concentrations in reaction buffer (50 mM Tris-HCL, pH 8.0, 50 mM NaCl, 10 mM MgCl2, 1 mM DTT, 1% DMSO, and 20 μg/mL activated DNA). The solution was inoculated for 20 min at room temperature and the reaction initiated by adding [adenylate-^32P]-Nicotinamide Adenine Dinucleotide, ^32P-NAD^+ at a final concentration of 10 μM. After incubation for 2 hour at room temperature, the reaction mixture was filtered and washed with 0.75% phosphoric acid for radioactivity detection. • ii. PARP2 assay: Human recombinant PARP2 at a final concentration of 2.5 nM was combined with histone H3 (20 μM) and test articles at various concentrations in reaction buffer (50 mM Tris-HCL, pH 8.0, 50 mM NaCl, 10 mM MgCl2, 1 mM DTT, 1% DMSO, and 20 μg/mL activated DNA). The solution was inoculated for 20 min at room temperature and the reaction was initiated by adding [adenylate-^32P]-Nicotinamide Adenine Dinucleotide, ^32P-NAD^+ at a final concentration of 10 μM. After incubation for 2 hour at room temperature, the reaction mixture was filtered and washed with 0.75% phosphoric acid for radioactivity detection. • b. AR binding assay: AR in LNCaP cytosol was used for determining the binding affinity of test articles and the reference compound—progesterone (Sigma, Cat: E2785, St. Louis, MO). IC50s were determined using 8 concentrations/compound. Cytosol was plated at 200 μg/well (100 μL) into a 96-well conical polypropylene plate (Agilent, Cat: 5042-1385, Santa Clara, CA) and mixed with 3 μL of test compound. After adding 100 μL of ^3H-methyltrienolone (PerkinElmer, Cat: NET590250UC, San Jose, CA), the plate was sealed and shaken at 300 rpm at 4° C. for 24 hours. Post incubation, 100 μL of radioligand adsorption buffer containing 10 mM Tris-HCl, pH 7.4; 1.5 mM EDTA; 1 mM DTT; 0.25% charcoal; 0.0025% dextran was added to individual well. Plate was shaken for 15 min at 4′C followed by centrifugation at 3000 rpm for 30 min at 4° C. 150 μL of supernatant was transferred into scint-tube (PerkinElmer, Cat: 6000192) and mixed with 2 mL of Ultima Gold Cocktail (PerkinElmer, Cat: 6013329). Radioactivity was counted using a TriCarb 2910 TR scintillation counter (PerkinElmer). Inhibition of the radioactivity by test articles were calculated using the equation below: % Inhibition=(1−(Assay well−Average_LC)/(Average_HC−Average_LC))×100%.

22RV1 cells = test: Cell proliferation assay (CellTiter Glo), 22RV1; type: cell-based; details: Homo sapiens, 22Rv1, 72 h, read-out: 22RV1 IC50
Protocol: IC50 values were calculated and graphed using the model “log(inhibitor) vs. response—Variable slope” included in GraphPad Prism 5 (San Diego, CA). The Ki values were further calculated using the equation below where [L] was the radioligand concentration (1 nM) using in this study. Kd value was 0.332 nM. Ki=IC50/(1+[L]/Kd) c. AR transactivation: Human AR cloned into a CMV vector backbone was used for the transactivation study. HEK-293 cells were plated at 80,000 cells per well of a 24 well plate in DME+5% csFBS. Twenty four hours later, the cells were transfected using Lipofectamine (Invitrogen, Carlsbad, CA) with 0.25 μg GRE-LUC, 0.01 μg CMV-LUC (renilla luciferase) and 25 ng of the AR in OPTIMEM medium. The cells were treated 24 hrs after transfection with various ligands (10^−12 to 10^−5 M final concentrations) and luciferase assay were performed 48 hours after transfection. Firefly values were normalized to renilla luciferase values and the values were represented as relative light units (RLU). Agonist and antagonist assays for the test article were performed in the absence and in the combination with 0.1 nM R1881, respectively. Data were represented as EC50 (for agonists) and IC50 (for antagonists) obtained from four parameter logistics curve. Cell culture and proliferation assays: LNCaP, PC-3, 22RV1, MCF-7, HT-29, and HCT-116 cells were procured from American Type Culture Collection (ATCC). Cells were cultured in medium recommended by the ATCC. Cell culture medium was obtained from Fisher scientific (Waltham, MA) and serum was obtained from Hyclone (San Angelo, TX).
Cells were plated at varying density in the respective growth medium in 96 well plates. 24 hr later, cells were treated, in triplicate or quadruplicate, with test articles prepared in a range of concentrations by series dilution of DMSO stock solutions in growth medium and incubated for three to seven days. The number of viable 22RV1 and HT-29 cells was measured using CellTiter Glo assay (CTG, Promega, Madison, WI) after three days of treatment. The other types of cancer cells were re-treated at three or four days and the number of viable cells was measured using CTG assay after a total treatment time of six or seven days. Cell viability data were plotted using GraphPad Prism (GraphPad Software, Inc., San Diego, CA). In addition, a nonlinear regression model with a sigmoidal dose response and variable slope within GraphPad Prism was used to calculate the IC50 value of individual test articles. Additional cell proliferation assays: Other cancer cell lines are tested in a cell proliferation assay. For example, SK-OV-3 or OVCAR3 ovarian cancer cells are tested. Cells are cultured in medium recommended by the supplier (e.g., ATCC or JCRB Cell Bank), at 37° C. in a 5% CO2 environment. For the proliferation assay, cells are plated in the growth medium in 96 well plates. Seeding density is adjusted according to the cell type. 24 hr later, cells are treated, in triplicate or quadruplicate, with test articles prepared in a range of concentrations by series dilution of DMSO stock solutions in growth medium, and typically incubated for three to seven days, with test article-containing medium replaced after three or four days. The number of viable cells is measured using CellTiter Glo assay (CTG, Promega, Madison, WI) or similar. Cell viability data are plotted using GraphPad Prism (GraphPad Software, Inc., San Diego, CA). In addition, a nonlinear regression model with a sigmoidal dose response and variable slope within GraphPad Prism is used to calculate the IC50 value of individual test articles. Similarly, HEK-293 and HeLa calls can also be tested by methods known in the art. • f. Nuclear translocation: LNCaP cells are plated on coverslips in 24 well plates in growth medium. Twenty-four hours after plating, medium is changed to RPMI+1% csFBS and the cells are maintained in this medium for two days. Medium is replaced again and the cells are treated. […]

[1] = 2.5 nM enzyme, histone H4, 10 μM 32P-NAD+, read-out: PARP1 IC50
[2] = cell growth inhibition, three days of treatment

Chain of Human recombinant PARP1 (P09874 whole entry): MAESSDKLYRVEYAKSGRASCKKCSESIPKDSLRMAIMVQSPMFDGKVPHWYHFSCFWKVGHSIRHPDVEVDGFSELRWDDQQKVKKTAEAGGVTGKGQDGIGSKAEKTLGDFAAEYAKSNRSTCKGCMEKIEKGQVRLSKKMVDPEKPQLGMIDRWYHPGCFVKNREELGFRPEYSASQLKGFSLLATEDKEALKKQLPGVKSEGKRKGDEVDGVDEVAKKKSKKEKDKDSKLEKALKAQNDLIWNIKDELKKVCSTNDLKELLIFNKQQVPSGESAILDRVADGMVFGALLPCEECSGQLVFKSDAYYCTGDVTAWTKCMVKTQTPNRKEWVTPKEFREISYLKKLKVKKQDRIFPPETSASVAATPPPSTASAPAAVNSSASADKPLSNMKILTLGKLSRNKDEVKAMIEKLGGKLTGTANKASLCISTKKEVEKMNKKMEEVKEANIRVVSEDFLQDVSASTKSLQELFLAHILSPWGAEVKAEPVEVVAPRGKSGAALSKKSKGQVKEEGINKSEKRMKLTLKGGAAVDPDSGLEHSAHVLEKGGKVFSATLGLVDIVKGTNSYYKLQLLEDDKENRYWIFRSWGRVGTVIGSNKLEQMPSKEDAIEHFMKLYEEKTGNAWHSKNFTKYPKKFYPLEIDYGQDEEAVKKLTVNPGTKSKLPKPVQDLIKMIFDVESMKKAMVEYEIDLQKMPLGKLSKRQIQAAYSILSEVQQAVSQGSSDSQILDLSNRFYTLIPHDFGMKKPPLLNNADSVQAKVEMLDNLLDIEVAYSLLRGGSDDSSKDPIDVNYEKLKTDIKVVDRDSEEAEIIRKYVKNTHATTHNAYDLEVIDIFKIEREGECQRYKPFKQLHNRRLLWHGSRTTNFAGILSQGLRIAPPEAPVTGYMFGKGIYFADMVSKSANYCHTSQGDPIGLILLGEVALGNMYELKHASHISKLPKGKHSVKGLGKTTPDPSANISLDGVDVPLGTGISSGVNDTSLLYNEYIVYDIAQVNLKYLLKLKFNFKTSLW

SMILES | pIC50 (Human recombinant PARP1) | pIC50 (22RV1 cells) | pIC50 (Human recombinant PARP1; [1]) | pIC50 (22RV1 cells; [2])
C[C@](O)(CS(=O)(=O)c1ccc(NCCN2CCN(C(=O)c3cc(Cc4n[nH]c(=O)c5ccccc45)ccc3F)CC2)cc1)C(=O)Nc1ccc(C#N)c(C(F)(F)F)c1 [Compound 1.99, (R)-N-(4-cyano-3-(trifluoromethyl)phenyl)-3-(4-(2-(4-(2-fluoro-5-((4-oxo-3,4-dihydrophthalazin-1-yl)methyl)benzoyl)piperazin-1-yl)ethylamino)phenylsulfonyl)-2-hydroxy-2-methylpropanamide] | 9.10 | 5.44 |  | 
C[C@]12CCC(=O)C[C@@H]1CC[C@@H]1[C@@H]2CC[C@]2(C)[C@@H](OCCOCC(=O)N3CCN(C(=O)c4cc(Cc5n[nH]c(=O)c6ccccc56)ccc4F)CC3)CC[C@@H]12 [Compound 1.104, 4-(3-(4-(2-(2-((5S,8R,9S,10S,13S,14S,17S)-10,13-dimethyl-3-oxohexadeca hydro-1H-cyclopenta[a]phenanthren-17-yloxy)ethoxy)acetyl)piperazine-1-carbonyl)-4-fluorobenzyl)phthalazin-1(2H)-one] |  |  | 8.92 | 5.96
C[C@]12CCC(=O)C[C@@H]1CC[C@@H]1[C@@H]2CC[C@@]2(C)[C@H]1CC[C@@]2(O)c1cn(CC(=O)N2CCN(C(=O)c3cc(Cc4n[nH]c(=O)c5ccccc45)ccc3F)CC2)nn1 [Compound 1.107, 4-(4-fluoro-3-(4-(2-(4-((5S,8R,9S,10S,13S,14S,17S)-17-hydroxy-10,13-dimethyl-3-oxohexadecahydro-1H-cyclopenta[a]phenanthren-17-yl)-1H-1,2,3-triazol-1-yl)acetyl)piperazine-1-carbonyl)benzyl)phthalazin-1(2H)-one] |  |  | 9.52 | 5.89
C[C@]12CCC(=O)C[C@@H]1CC[C@@H]1[C@@H]2CC[C@]2(C)[C@@H](OCC(=O)N3CCN(C(=O)c4cc(Cc5n[nH]c(=O)c6ccccc56)ccc4F)CC3)CC[C@@H]12 [Compound 1.110, 4-(3-(4-(2-((5S,8R,9S,10S,13S,14S,17S)-10,13-dimethyl-3-oxohexadecahydro-1H-cyclopenta[a]phenanthren-17-yloxy)acetyl)piperazine-1-carbonyl)-4-fluorobenzyl)phthalazin-1(2H)-one] |  |  | 9.15 | 6.08
C[C@]12CCC(O)C[C@@H]1CC[C@@H]1[C@@H]2CC[C@]2(C)[C@@H](OCCCCCC(=O)N3CCN(C(=O)c4cc(Cc5n[nH]c(=O)c6ccccc56)ccc4F)CC3)CC[C@@H]12 (stereo partly drawn) [Compound 1.111, 4-(4-fluoro-3-(4-(6-((5S,8R,9S,10S,13S,14S,17S)-3-hydroxy-10,13-dimethylhexadecahydro-1H-cyclopenta[a]phenanthren-17-yloxy)hexanoyl)piperazine-1-carbonyl)benzyl)phthalazin-1(2H)-one] |  |  | 8.80 | 6.05
C[C@]12CCC(F)(F)C[C@@H]1CC[C@@H]1[C@@H]2CC[C@]2(C)[C@@H](OCCCCCC(=O)N3CCN(C(=O)c4cc(Cc5n[nH]c(=O)c6ccccc56)ccc4F)CC3)CC[C@@H]12 [Compound 1.114, 4-(3-(4-(6-((5S,8R,9S,10S,13S,14S,17S)-3,3-difluoro-10,13-dimethylhexadecahydro-1H-cyclopenta[a]phenanthren-17-yloxy)hexanoyl)piperazine-1-carbonyl)-4-fluorobenzyl)phthalazin-1(2H)-one] |  |  | 7.55 | 5.89
C[C@]12CCC(=O)C[C@@H]1CC[C@@H]1[C@@H]2CC[C@@]2(C)[C@H]1CC[C@@]2(O)C#CC(=O)N1CCN(C(=O)c2cc(Cc3n[nH]c(=O)c4ccccc34)ccc2F)CC1 [Compound 1.116, 4-(4-fluoro-3-(4-(3-((5S,8R,9S,10S,13S,14S,17S)-17-hydroxy-10,13-dimethyl-3-oxohexadecahydro-1H-cyclopenta[a]phenanthren-17-yl)propioloyl)piperazine-1-carbonyl)benzyl)phthalazin-1(2H)-one] |  |  | 9.30 | 5.59
